Where a name gives a salt, the structure may show the parent alone.

The experiment concerns the target T1, human recombinant ENPP1 (Homo sapiens, UniProt P22413).
T1 construct: purchased R & D systems
T1 sequence (P22413 1-925): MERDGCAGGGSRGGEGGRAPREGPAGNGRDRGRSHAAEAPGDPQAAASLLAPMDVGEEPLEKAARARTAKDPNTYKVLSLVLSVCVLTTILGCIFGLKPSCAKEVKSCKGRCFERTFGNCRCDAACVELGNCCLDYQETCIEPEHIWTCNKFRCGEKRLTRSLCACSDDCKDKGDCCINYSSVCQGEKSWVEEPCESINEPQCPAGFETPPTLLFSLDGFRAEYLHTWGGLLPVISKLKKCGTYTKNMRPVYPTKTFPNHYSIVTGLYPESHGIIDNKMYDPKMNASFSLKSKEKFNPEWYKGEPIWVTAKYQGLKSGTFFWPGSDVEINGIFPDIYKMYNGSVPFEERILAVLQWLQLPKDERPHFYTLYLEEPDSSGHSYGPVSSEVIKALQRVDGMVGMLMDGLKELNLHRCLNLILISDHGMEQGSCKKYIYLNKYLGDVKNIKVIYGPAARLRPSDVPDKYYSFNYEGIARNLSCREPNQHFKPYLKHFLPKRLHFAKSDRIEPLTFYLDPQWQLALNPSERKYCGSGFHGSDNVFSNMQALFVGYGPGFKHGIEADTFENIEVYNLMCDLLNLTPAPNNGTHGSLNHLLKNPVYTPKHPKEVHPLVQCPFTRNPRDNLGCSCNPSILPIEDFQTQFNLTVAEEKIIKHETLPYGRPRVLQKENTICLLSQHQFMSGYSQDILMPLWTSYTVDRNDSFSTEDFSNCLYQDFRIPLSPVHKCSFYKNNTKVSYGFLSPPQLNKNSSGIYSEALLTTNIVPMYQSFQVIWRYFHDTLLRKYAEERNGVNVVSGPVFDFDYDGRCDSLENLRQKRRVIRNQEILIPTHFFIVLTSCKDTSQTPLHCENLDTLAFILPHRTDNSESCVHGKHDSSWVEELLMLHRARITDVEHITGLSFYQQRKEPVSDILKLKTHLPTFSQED
Kind of experiment: ENPP1 enzyme assay with cGAMP substrate (AMP-Glo luminescence). It is filed as biochemical. To be noted: human recombinant ENPP1 3 ng/reaction, cGAMP 5 μM, 37° C. 90 minutes, read-out: Enzymatic activity (ENPP1 IC50). Here is the method: ENPP1 hydrolyzes nucleotides or nucleotide derivatives to produce nucleoside -5′-monophosphate and pyrophosphate. in addition, ENPP1 hydrolyzes 2′,3′-cGAMP to produce 5′-adenosine monophosphate (AMP) and 5′-guanosine monophosphate (GMP). AMP produced from the reaction is measured using the AMP-Glo® kit (Promega). The AMP-Glo® kit contains two reagents. The first reagent terminates the AMP-producing enzymatic reaction, removes ATP and converts the produced AMP into ADP. The second reagent converts ADP to ATP which is used to generate luminescence in the luciferase reaction. The amount of luminescence measured is proportional to the amount of AMP produced by ENPP1.
The final reaction mixture contains 50 mM Tris (pH 8.5) buffer, 250 mM NaCl, 0.5 mM. CaCl2, 1 μM ZnCl2, 5% glycerol and 1% DMSO. […] The reaction was initiated by addition of cGAMP (at a final concentration of 5 μM) and reacted at 37° C. for 90 minutes. At the end of the reaction, 10 μl of the AMP-Glo first reagent was added to stop the reaction and the result was stored at room temperature for […]. After storage, 20 μl of an AMP detection solution (a mixture of AMP-Glo II reagent and Kinase-Gio at a ratio of 1:100) was added and stored at room. temperature for 1 hour. Luminescence signals were measured using a Victor® plate reader (Perkin Elmer). The maximal activity control (containing enzymes and substrates only in the presence of 1% DMSO; MAX) and the minimal activity control (containing substrates and 1% DMSO; MIN) were evaluated simultaneously. In each experiment, serially diluted reference ENPP1 inhibitors were tested together. IC50, indicating % residual activity versus compound concentration was determined by fitting inhibition curves using the 3-parameter analysis of GraphPad Prism® software. Serially diluted samples of one compound were tested two or more times and an average IC50 of each compound was calculated.
The term IC50 denotes the concentration at which inhibition is half-maximal. `NCc1ccc(-c2nn(-c3ccccc3)c(=O)c3ccccc23)cc1` [Compound No. 40, 4-(4-aminomethyl)phenyl)-2-phenylphthalazin-1(2H)-one hydrochloride]: the half-maximal inhibitory concentration (IC50) lay in the range of 1 to 10 µM.
Turning to `COc1ccc2c(-c3ccc(CNS(N)(=O)=O)cc3)n[nH]c(=O)c2c1` [Compound No. 106, N-(4-(6-methoxy-4-oxo-3,4-dihydrophthalazin-1-yl)benzyl)sulfamide hydrochloride], the IC50 lay within 1 to 10 µM.
For the compound `COc1cc2c(-c3ccc(CN(C)S(N)(=O)=O)cc3C(F)(F)F)n[nH]c(=O)c2cc1OC` [Compound No. 118, hydrochloride], the IC50 was over 10 µM.
For `Cn1nc(Cc2ccc(NS(=O)(=O)NC(=O)OC(C)(C)C)cc2)c2ccccc2c1=O` [Example 170, tert-butyl (N-(4-((3-methyl-4-oxo-3,4-dihydrophthalazin-1-yl)methyl)phenyl)sulfamoyl)carbamate], the IC50 was over 10 µM.
In the case of `CNS(=O)(=O)Cc1ccc(-c2nn(C)c(=O)c3ccccc23)cc1` [Example 200, N methyl-1-(4-(3-methyl-4-oxo-3,4-dihydrophthalazin-1-yl)phenyl)methanesulfonamide], the IC50 is over 10 µM.
The result for `COc1cc2c(-c3ccc4c(c3)CCNC4)nn(C)c(=O)c2cc1OC` [Compound No. 58, 6,7-dimethoxy-2-methyl-4-(1,2,3,4-tetrahydroisoquinolin-6-yl)phthalazin-1(2H)-one hydrochloride] reads 1 to 10 µM; that for `Nc1ccc(Cc2n[nH]c(=O)c3ccccc23)cc1` [Example 158, 4-(4-aminobenzyl)-phthalazin-1(2H)-one hydrochloride], over 10 µM; that for `NS(=O)(=O)NCC1CCN(c2n[nH]c(=O)c3ccccc23)CC1` [Compound No. 138, N-((1-(4-oxo-3,4-dihydrophthalazin-1-yl)piperidin-4-yl)methyl)sulfamide hydrochloride], under 1 µM.
Then `NCc1ccc(-c2n[nH]c(=O)c3ccccc23)cc1C(F)(F)F` [Compound No. 53, 4-(4-(aminomethyl)-3-(trifluoromethyl)phenyl)phthalazin-1(2H)-one hydrochloride], with under 1 µM.
With `COc1cc2c(-c3ccc(CNS(N)(=O)=O)cc3C(F)(F)F)n[nH]c(=O)c2cc1OC` [Compound No. 116, hydrochloride], the IC50 lay within 1 to 10 µM.
The result for `Cn1nc(-c2ccc(CN)cc2)c2ccccc2c1=O` [Compound No. 37, 4-(4-aminomethyl)phenyl)-2-methylphthalazin-1(2H)-one hydrochloride] reads under 1 µM; that for `COc1cc2c(Cc3ccc(NC(=O)OC(C)(C)C)cc3)n[nH]c(=O)c2cc1OC` [Compound No. 149, tert-butyl (4-((6,7-dimethoxy-4-oxo-3,4-dihydrophthalazin-1-yl)methyl)phenyl)carbamate], over 10 µM.
Take `NS(=O)(=O)Nc1ccc(Cc2n[nH]c(=O)c3ccccc23)c(C(F)(F)F)c1` [Example 191, N-(3-(trifluorobenzylmethyl)-4-((4-oxo-3,4-dihydrophthalazin-1-yl)methyl)phenyl)sulfamide hydrochloride]: the IC50 is under 1 µM.
Then `COc1ccc2c(=O)[nH]nc(-c3ccc(CNC(=O)OC(C)(C)C)cc3)c2c1` [Compound No. 15, tert-butyl (4-(7-methoxy-4-oxo-3,4-dihydrophthalazin-1-yl)benzyl)carbamate], with over 10 µM; and `COc1cc2c(N3CCC(CNC(=O)OC(C)(C)C)CC3)n[nH]c(=O)c2cc1OC` [Compound No. 133, tert-butyl ((1-(6,7-dimethoxy-4-oxo-3,4-dihydrophthalazin-1-yl)piperidin-4-yl)methyl)carbamate], with over 10 µM; and `COc1cc2c(-c3ccc(CN(C)S(N)(=O)=O)c(F)c3)n[nH]c(=O)c2cc1OC` [Compound No. 113, N-(4-(6,7-dimethoxy-4-oxo-3,4-dihydrophthalazin-1-yl)-2-fluorobenzyl)-N-methyl sulfamide hydrochloride], with 1 to 10 µM.
Then `Cn1nc(-c2ccc(CNS(=O)(=O)NC(=O)OC(C)(C)C)cc2)c2ccccc2c1=O` [Compound No. 66, tert-butyl (N-(4-(3-methyl-4-oxo-3,4-dihydrophthalazin-1-yl)benzyl)sulfamoyl)carbamate], with over 10 µM; and `NS(=O)(=O)Nc1ccc(Cc2n[nH]c(=O)c3ccccc23)c(F)c1` [Example 189, N-(3-fluoro-4-((4-oxo-3,4-dihydrophthalazin-1-yl)methyl)phenyl)sulfamide hydrochloride], with under 1 µM; and `CC(C)(C)OC(=O)NS(=O)(=O)Nc1cccc(-c2n[nH]c(=O)c3ccccc23)c1` [Compound No. 60, tert-butyl (N-(3-(4-oxo-3,4-dihydrophthalazin-1-yl)phenyl)sulfamoyl)carbamate], with over 10 µM.
`COc1cc2c(Cc3ccc(NS(N)(=O)=O)cc3)nn(C)c(=O)c2cc1OC` [Example 183, N-(4-((6,7-dimethoxy-3-methyl-4-oxo-3,4-dihydrophthalazin-1-yl)methyl)phenyl)sulfamide hydrochloride]: the IC50 was under 1 µM.
Then `CC(C)(C)OC(=O)NCc1ccc(-c2n[nH]c(=O)c3ccccc23)cc1C(F)(F)F` [Compound No. 24, tert-butyl 4-(4-oxo-3,4-dihydrophthalazin-1-yl)-2-(trifluoromethyl)benzyl carbamate], with over 10 µM; and `CC(C)(C)OC(=O)NCc1ccc(-c2nn(-c3ccccc3)c(=O)c3ccccc23)cc1` [Compound No. 12, tert-butyl (4-(4-oxo-3-phenyl-3,4-dihydrophthalazin-1-yl)benzyl)carbamate], with over 10 µM.
Then `C[C@@H](NS(N)(=O)=O)c1ccc(-c2n[nH]c(=O)c3ccccc23)cc1` [Compound No. 124, (R)-N-(1-(4-(4-oxo-3,4-dihydrophthalazin-1-yl)phenyl)ethyl)sulfamide hydrochloride], with under 1 µM; and `CCn1nc(-c2ccc(CNS(=O)(=O)NC(=O)OC(C)(C)C)cc2)c2ccccc2c1=O` [Compound No. 67, tert-butyl (N-(4-(3-ethyl-4-oxo-3,4-dihydrophthalazin-1-yl)benzyl)sulfamoyl)carbamate], with over 10 µM; and `COc1cc2c(-c3ccc(CNS(N)(=O)=O)c(C(F)(F)F)c3)n[nH]c(=O)c2cc1OC` [Compound No. 119, hydrochloride], with 1 to 10 µM.
The result for `COc1cc2c(-c3ccc(CNS(N)(=O)=O)c(F)c3F)n[nH]c(=O)c2cc1OC` [Compound No. 115, N-(4-(6,7-dimethoxy-4-oxo-3,4-dihydrophthalazin-1-yl)-2,3-difluorobenzyl)sulfamide hydrochloride] reads 1 to 10 µM.
`COc1cc2c(Cc3ccc(NS(=O)(=O)NC(=O)OC(C)(C)C)cc3)n[nH]c(=O)c2cc1OC` [Example 171, tert-butyl (N-(4-((6,7-dimethoxy-4-oxo-3,4-dihydrophthalazin-1-yl)methyl)phenyl)sulfamoyl)carbamate]: the IC50 was over 10 µM.
The result for `Cn1nc(-c2ccc(CCS(N)(=O)=O)cc2)c2ccccc2c1=O` [Example 202, 2-(4-(3-methyl-4-oxo-3,4-dihydrophthalazin-1-yl)phenyl)ethane-1-sulfonamide] reads 1 to 10 µM; that for `COc1cc2c(-c3ccc(CN)cc3)nn(C)c(=O)c2cc1OC` [Compound No. 49, 4-(4-(aminomethyl)phenyl)-6,7-dimethoxy-2-methylphthalazin-1(2H)-one hydrochloride], under 1 µM.

The values above are taken from patent US20230159469A1, “NOVEL PHTHALAZINE DERIVATIVE HAVING ECTONUCLOEOTIDE PYROPHOSPHATASE/PHOSPHODIESTE RASE INHIBITORY ACTIVITY, AND USE THEREOF” (TXINNO BIOSCIENCE INC., priority 2020, published 2023).
